Measurements reported in the supplement of paper PMC9013687.
± gives the standard deviation of the averaged measurements.

Key:
Danio rerio embryo [1] = experiment: EC50 Yolk sac size_Increase; details: exposure time: 4 dpf
Experimental: (§1)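 Zebrafish embryos (UFZ-OBI strain) were exposed from 2 hpf for 48 h (2 dpf) or 96 h (4 dpf) at 28 °C; spontaneous tail coiling was scored at 25 hpf. Morphological features from automated image analysis (FishInspector), heart rate and locomotor response were fitted with drc models. Quantal endpoints were dichotomised at 2.5 SD from controls and fitted with a log-logistic model; heart rate, pigmentation and STC were normalised to the replicate control mean. Betamethasone was tested as betamethasone dipropionate, diflorasone as diflorasone diacetate.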

Danio rerio embryo [2] = experiment: EC10 Otolith-eye distance_Decrease; higher = less potent; details: exposure time: 4 dpf
Experimental: as §1

Danio rerio embryo [3] = experiment: EC20 Eye size_Decrease; higher = less potent
Experimental: as §1

Danio rerio embryo [4] = experiment: EC20 Head trunk angle_Decrease; higher = less potent; details: exposure time: 2 dpf
Experimental: as §1

Danio rerio embryo [5] = experiment: EC50 Body length_Decrease
Experimental: as §1

Danio rerio embryo [6] = experiment: EC10 Curvature_Increase; higher = less potent; details: exposure time: 2 dpf
Experimental: as §1

Danio rerio embryo [7] = experiment: EC50 Curvature_Increase; details: exposure time: 2 dpf
Experimental: as §1

Danio rerio embryo [8] = experiment: EC10 Pericard size_Increase; higher = less potent
Experimental: as §1

Danio rerio embryo [9] = experiment: EC20 Eye-jaw distance_Decrease; higher = less potent; details: exposure time: 4 dpf
Experimental: as §1

Danio rerio embryo [10] = tested on: Danio rerio embryo
Experimental: as §1

Danio rerio embryo [11] = experiment: EC50 Eye-jaw distance_Decrease; details: exposure time: 4 dpf
Experimental: as §1

Danio rerio embryo [12] = experiment: EC20 Curvature_Increase; higher = less potent; details: exposure time: 2 dpf
Experimental: as §1

Danio rerio embryo [13] = experiment: EC10 Bladder size_Decrease; higher = less potent; details: exposure time: 4 dpf
Experimental: as §1

Danio rerio embryo [14] = experiment: EC20 Otolith-eye distance_Decrease; higher = less potent; details: exposure time: 4 dpf
Experimental: as §1

Danio rerio embryo [15] = experiment: EC10 Yolk sac size_Increase; higher = less potent; details: exposure time: 4 dpf
Experimental: as §1

Danio rerio embryo [16] = details: exposure time: 4 dpf
Experimental: as §1

Danio rerio embryo [17] = experiment: EC50 Otolith-eye distance_Decrease; details: exposure time: 4 dpf
Experimental: as §1

Danio rerio embryo [18] = experiment: EC20 Pericard size_Increase; higher = less potent
Experimental: as §1

Danio rerio embryo [19] = experiment: EC10 Body length_Decrease; higher = less potent
Experimental: as §1

Danio rerio embryo [20] = experiment: EC20 Body length_Decrease; higher = less potent
Experimental: as §1

Danio rerio embryo [21] = experiment: EC20 LMR dark; higher = less potent; details: exposure time: 4 dpf
Experimental: as §1

Danio rerio embryo [22] = experiment: EC50 Pericard size_Increase
Experimental: as §1

Danio rerio embryo [23] = experiment: EC10 Eye-jaw distance_Decrease; higher = less potent; details: exposure time: 4 dpf
Experimental: as §1

Danio rerio embryo [24] = experiment: spontaneous tail coiling frequency (coils/min/embryo); higher = more spontaneous movement; details: 25 hpf
Experimental: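 Spontaneous tail coilings of zebrafish embryos exposed from 2 hpf were recorded at 24-25 hpf in 1-min videos and detected by a KNIME workflow from grey-value variance. Betamethasone was tested as the dipropionate, diflorasone as the diacetate.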

Danio rerio embryo [25] = experiment: EC20 Yolk sac size_Increase; higher = less potent; details: exposure time: 4 dpf
Experimental: as §1

Danio rerio embryo [26] = experiment: EC10 LMR dark; higher = less potent; details: exposure time: 4 dpf
Experimental: as §1

Danio rerio embryo [27] = experiment: EC20 Bladder size_Decrease; higher = less potent; details: exposure time: 4 dpf
Experimental: as §1

Danio rerio embryo [28] = experiment: EC10 Any effect; higher = less potent
Experimental: as §1

Danio rerio embryo [29] = experiment: EC50 Bladder size_Decrease; details: exposure time: 4 dpf
Experimental: as §1

Danio rerio embryo [30] = experiment: EC20 Any effect; higher = less potent
Experimental: as §1

CSc1nc2cc(Cl)c(Oc3cccc(Cl)c3Cl)cc2[nH]1 [Triclabendazole]
Details | EC10 Bladder size Decrease [nM] | EC10 Curvature Increase [nM] | EC10 Eye-jaw distance Decrease [nM] | EC10 LMR dark [nM] | EC10 Otolith-eye distance Decrease [nM] | EC10 Yolk sac size Increase [nM] | EC20 Bladder size Decrease [nM] | EC20 Curvature Increase [nM] | EC20 Eye-jaw distance Decrease [nM] | EC20 Head trunk angle Decrease [nM] | EC20 LMR dark [nM] | EC20 Otolith-eye distance Decrease [nM] | EC20 Yolk sac size Increase [nM] | EC50 Bladder size Decrease [nM] | EC50 Curvature Increase [nM] | EC50 Eye-jaw distance Decrease [nM] | EC50 LMR dark [nM] | EC50 Otolith-eye distance Decrease [nM] | EC50 Yolk sac size Increase [nM]
Danio rerio embryo [1] | – | – | – | – | – | – | – | – | – | – | – | – | – | – | – | – | – | – | 691
Danio rerio embryo [2] | – | – | – | – | 538 | – | – | – | – | – | – | – | – | – | – | – | – | – | –
Danio rerio embryo [4] | – | – | – | – | – | – | – | – | – | 1600 | – | – | – | – | – | – | – | – | –
Danio rerio embryo [6] | – | 1710 | – | – | – | – | – | – | – | – | – | – | – | – | – | – | – | – | –
Danio rerio embryo [7] | – | – | – | – | – | – | – | – | – | – | – | – | – | – | 1980 | – | – | – | –
Danio rerio embryo [9] | – | – | – | – | – | – | – | – | 708 | – | – | – | – | – | – | – | – | – | –
Danio rerio embryo [11] | – | – | – | – | – | – | – | – | – | – | – | – | – | – | – | 731 | – | – | –
Danio rerio embryo [12] | – | – | – | – | – | – | – | 1810 | – | – | – | – | – | – | – | – | – | – | –
Danio rerio embryo [13] | 462 | – | – | – | – | – | – | – | – | – | – | – | – | – | – | – | – | – | –
Danio rerio embryo [14] | – | – | – | – | – | – | – | – | – | – | – | 622 | – | – | – | – | – | – | –
Danio rerio embryo [15] | – | – | – | – | – | 458 | – | – | – | – | – | – | – | – | – | – | – | – | –
Danio rerio embryo [16] | – | – | – | – | – | – | – | – | – | – | – | – | – | – | – | – | 403 | – | –
Danio rerio embryo [17] | – | – | – | – | – | – | – | – | – | – | – | – | – | – | – | – | – | 796 | –
Danio rerio embryo [21] | – | – | – | – | – | – | – | – | – | – | 240 | – | – | – | – | – | – | – | –
Danio rerio embryo [23] | – | – | 695 | – | – | – | – | – | – | – | – | – | – | – | – | – | – | – | –
Danio rerio embryo [25] | – | – | – | – | – | – | – | – | – | – | – | – | 533 | – | – | – | – | – | –
Danio rerio embryo [26] | – | – | – | 178 | – | – | – | – | – | – | – | – | – | – | – | – | – | – | –
Danio rerio embryo [27] | – | – | – | – | – | – | 475 | – | – | – | – | – | – | – | – | – | – | – | –
Danio rerio embryo [29] | – | – | – | – | – | – | – | – | – | – | – | – | – | 497 | – | – | – | – | –

Details | EC10 Any effect [nM] | EC10 Body length Decrease [nM] | EC10 Pericard size Increase [nM] | EC20 Any effect [nM] | EC20 Body length Decrease [nM] | EC20 Eye size Decrease [nM] | EC20 Pericard size Increase [nM] | EC50 Any effect [nM] | EC50 Body length Decrease [nM] | EC50 Pericard size Increase [nM] | EC50 Pigmentation increase [nM] | EC50 STC decrease [nM] | spontaneous tail coiling frequency
Danio rerio embryo [3], exposure time: 2 dpf | – | – | – | – | – | 1420 | – | – | – | – | – | – | –
Danio rerio embryo [3], exposure time: 4 dpf | – | – | – | – | – | 512 | – | – | – | – | – | – | –
Danio rerio embryo [5], exposure time: 2 dpf | – | – | – | – | – | – | – | – | 1270 | – | – | – | –
Danio rerio embryo [5], exposure time: 4 dpf | – | – | – | – | – | – | – | – | 1090 | – | – | – | –
Danio rerio embryo [8], exposure time: 2 dpf | – | – | 651 | – | – | – | – | – | – | – | – | – | –
Danio rerio embryo [8], exposure time: 4 dpf | – | – | 772 | – | – | – | – | – | – | – | – | – | –
Danio rerio embryo [10], exposure time: 2 dpf | – | – | – | – | – | – | – | 1340 | – | – | – | – | –
Danio rerio embryo [10], exposure time: 4 dpf | – | – | – | – | – | – | – | 556 | – | – | 690 | – | –
Danio rerio embryo [10], exposure time: 25 h | – | – | – | – | – | – | – | – | – | – | – | 76 | –
Danio rerio embryo [18], exposure time: 2 dpf | – | – | – | – | – | – | 1010 | – | – | – | – | – | –
Danio rerio embryo [18], exposure time: 4 dpf | – | – | – | – | – | – | 775 | – | – | – | – | – | –
Danio rerio embryo [19], exposure time: 2 dpf | – | 672 | – | – | – | – | – | – | – | – | – | – | –
Danio rerio embryo [19], exposure time: 4 dpf | – | 586 | – | – | – | – | – | – | – | – | – | – | –
Danio rerio embryo [20], exposure time: 2 dpf | – | – | – | – | 850 | – | – | – | – | – | – | – | –
Danio rerio embryo [20], exposure time: 4 dpf | – | – | – | – | 738 | – | – | – | – | – | – | – | –
Danio rerio embryo [22], exposure time: 2 dpf | – | – | – | – | – | – | – | – | – | 2140 | – | – | –
Danio rerio embryo [22], exposure time: 4 dpf | – | – | – | – | – | – | – | – | – | 782 | – | – | –
Danio rerio embryo [24], 0.139 µM | – | – | – | – | – | – | – | – | – | – | – | – | 0.65
Danio rerio embryo [24], 0.488205 µM | – | – | – | – | – | – | – | – | – | – | – | – | 1.35
Danio rerio embryo [24], 0.577 µM | – | – | – | – | – | – | – | – | – | – | – | – | 1.03
Danio rerio embryo [24], 0.732308 µM | – | – | – | – | – | – | – | – | – | – | – | – | 1.05
Danio rerio embryo [24], 0.835 µM | – | – | – | – | – | – | – | – | – | – | – | – | 1.49 ± 0.096
Danio rerio embryo [24], 1.086 µM | – | – | – | – | – | – | – | – | – | – | – | – | 1.13
Danio rerio embryo [24], 1.09846 µM | – | – | – | – | – | – | – | – | – | – | – | – | 0.655
Danio rerio embryo [24], 1.412 µM | – | – | – | – | – | – | – | – | – | – | – | – | 0.667 ± 0.38
Danio rerio embryo [24], 1.64769 µM | – | – | – | – | – | – | – | – | – | – | – | – | 1.2
Danio rerio embryo [24], 1.835 µM | – | – | – | – | – | – | – | – | – | – | – | – | 0.75 ± 0.38
Danio rerio embryo [24], 2.386 µM | – | – | – | – | – | – | – | – | – | – | – | – | 0.583 ± 0.35
Danio rerio embryo [24], 2.47154 µM | – | – | – | – | – | – | – | – | – | – | – | – | 0.315
Danio rerio embryo [24], 3.70731 µM | – | – | – | – | – | – | – | – | – | – | – | – | 0.06
Danio rerio embryo [28], exposure time: 2 dpf | 893 | – | – | – | – | – | – | – | – | – | – | – | –
Danio rerio embryo [28], exposure time: 4 dpf | 344 | – | – | – | – | – | – | – | – | – | – | – | –
Danio rerio embryo [30], exposure time: 2 dpf | – | – | – | 1040 | – | – | – | – | – | – | – | – | –
Danio rerio embryo [30], exposure time: 4 dpf | – | – | – | 411 | – | – | – | – | – | – | – | – | –
